The source of these data is US12227500B2, “Substituted pyrrolo[2,3-b]pyridines for suppressing toxic endoplasmic reticulum stress” (THE TRUSTEES OF COLUMBIA UNIVERSITY IN THE CITY OF NEW YORK, priority 2018, dated 2025).

Common to all, as to assay: Radiolabeled ATP kinase assay, panel of 371 kinases (Table S6)
Assay type in all cases: biochemical

Test [1] concerns the target T1, panel of 371 human kinases (Homo sapiens, UniProt Q9Y4K4).
T1 construct: purchased Reaction Biology Corp
As to conditions: for remaining activity at 0.1 µM: KHS/MAP4K5, 10 μM ATP, read-out: % Enzyme Activity (relative to DMSO controls). The text has this:
(§1) ; FIG. 38C). […]. Further targeted analyses, such as genetic knock-down or knock-out, may be warranted to parse the role of these additional kinases in our model of neurodegeneration.

The target in test [2] is T2, panel of 371 human kinases (Homo sapiens, UniProt Q12851).
T2 construct: purchased Reaction Biology Corp
T2 sequence (Q12851 1-820): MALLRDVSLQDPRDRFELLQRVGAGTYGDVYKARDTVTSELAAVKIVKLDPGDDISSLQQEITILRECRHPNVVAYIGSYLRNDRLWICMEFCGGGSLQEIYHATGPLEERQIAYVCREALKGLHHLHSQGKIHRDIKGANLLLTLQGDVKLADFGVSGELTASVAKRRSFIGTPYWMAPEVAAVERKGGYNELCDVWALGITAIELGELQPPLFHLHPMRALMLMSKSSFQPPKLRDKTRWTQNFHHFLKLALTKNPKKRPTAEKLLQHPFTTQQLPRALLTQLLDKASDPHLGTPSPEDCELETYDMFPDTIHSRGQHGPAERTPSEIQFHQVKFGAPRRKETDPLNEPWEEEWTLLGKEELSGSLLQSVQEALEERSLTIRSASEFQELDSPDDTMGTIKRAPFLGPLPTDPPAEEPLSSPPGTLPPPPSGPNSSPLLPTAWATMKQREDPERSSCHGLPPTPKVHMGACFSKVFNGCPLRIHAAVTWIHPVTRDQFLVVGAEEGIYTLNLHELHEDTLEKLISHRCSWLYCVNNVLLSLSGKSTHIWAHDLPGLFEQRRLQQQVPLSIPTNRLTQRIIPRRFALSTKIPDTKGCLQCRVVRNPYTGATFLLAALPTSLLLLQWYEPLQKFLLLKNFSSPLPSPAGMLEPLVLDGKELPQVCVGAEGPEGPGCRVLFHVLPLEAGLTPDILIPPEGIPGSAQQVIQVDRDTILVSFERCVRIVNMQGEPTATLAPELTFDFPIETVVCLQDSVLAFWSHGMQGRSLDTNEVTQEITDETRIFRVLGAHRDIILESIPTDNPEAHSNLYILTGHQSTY
As to conditions: for remaining activity at 0.1 µM: GCK/MAP4K2, 10 μM ATP, read-out: % Enzyme Activity (relative to DMSO controls).
Text: as §1

The target of test [3] is T3, panel of 371 human kinases (Homo sapiens, UniProt Q15303).
T3 construct: purchased Reaction Biology Corp
As to conditions: ERBB4/HER4; 0.1 μM; 10 μM ATP; read-out: % Enzyme Activity (relative to DMSO controls).
Text: as §1

The target of test [4] is T4, panel of 371 human kinases (Homo sapiens, UniProt P06239).
T4 construct: purchased Reaction Biology Corp
The settings on record: LCK; 0.1 μM; 10 μM ATP; read-out: % Enzyme Activity (relative to DMSO controls).
Text: as §1

The target of test [5] is T5, panel of 371 human kinases (Homo sapiens, UniProt Q76MJ5).
T5 construct: purchased Reaction Biology Corp
The settings on record: ERN2/IRE2; 0.1 μM; 10 μM ATP; read-out: % Enzyme Activity (relative to DMSO controls).
Text: as §1

Test [6] addresses T6, panel of 371 human kinases (Homo sapiens, UniProt P49840).
T6 construct: purchased Reaction Biology Corp
As to conditions: GSK3a; 0.1 μM; 10 μM ATP; read-out: % Enzyme Activity (relative to DMSO controls).
Text: as §1

Test [7] addresses T7, panel of 371 human kinases (Homo sapiens, UniProt P53671).
T7 construct: purchased Reaction Biology Corp
The settings on record: LIMK2; 0.1 μM; 10 μM ATP; read-out: % Enzyme Activity (relative to DMSO controls).
Text: as §1

For test [8], the target named is T8, panel of 371 human kinases (Homo sapiens, UniProt Q00526).
T8 construct: purchased Reaction Biology Corp
The settings on record: 0.1 μM, 10 μM ATP, read-out: % Enzyme Activity (relative to DMSO controls).
Text: as §1

The target of test [9] is T9, panel of 371 human kinases (Homo sapiens, UniProt Q86SG6).
T9 construct: purchased Reaction Biology Corp
The settings on record: NEK8; 0.1 μM; 10 μM ATP; read-out: % Enzyme Activity (relative to DMSO controls).
Text: as §1

Test [10] concerns the target T10, panel of 371 human kinases (Homo sapiens, UniProt Q06418).
T10 construct: purchased Reaction Biology Corp
The settings on record: TYRO3/SKY; 0.1 μM; 10 μM ATP; read-out: % Enzyme Activity (relative to DMSO controls).
Text: as §1

For test [11], the target named is T11, panel of 371 human kinases (Homo sapiens, UniProt P06213).
T11 construct: purchased Reaction Biology Corp
The settings on record: IR; 0.1 μM; 10 μM ATP; read-out: % Enzyme Activity (relative to DMSO controls).
Text: as §1

For test [12], the target named is T12, panel of 371 human kinases (Homo sapiens, UniProt Q00537).
T12 construct: purchased Reaction Biology Corp
The settings on record: CDK17/cyclin Y (PCTK2); 0.1 μM; 10 μM ATP; read-out: % Enzyme Activity (relative to DMSO controls).
Text: as §1

Test [13] concerns the target T13, panel of 371 human kinases (Homo sapiens, UniProt P43403).
T13 construct: purchased Reaction Biology Corp
The settings on record: ZAP70; 0.1 μM; 10 μM ATP; read-out: % Enzyme Activity (relative to DMSO controls).
Text: as §1

Test [14] deals with T14, panel of 371 human kinases (Homo sapiens, UniProt O43318).
T14 construct: purchased Reaction Biology Corp
As to conditions: TAK1; 0.1 μM; 10 μM ATP; read-out: % Enzyme Activity (relative to DMSO controls).
Text: as §1

The target of test [15] is T15, panel of 371 human kinases (Homo sapiens, UniProt P07949).
T15 construct: purchased Reaction Biology Corp
The settings on record: RET; 0.1 μM; 10 μM ATP; read-out: % Enzyme Activity (relative to DMSO controls).
Text: as §1

In test [16] the target is T16, panel of 371 human kinases (Homo sapiens, UniProt Q9HCP0).
T16 construct: purchased Reaction Biology Corp
The settings on record: CK1g1; 0.1 μM; 10 μM ATP; read-out: % Enzyme Activity (relative to DMSO controls).
Text: as §1

Test [17] has as its target T17, panel of 371 human kinases (Homo sapiens, UniProt P21802).
T17 construct: purchased Reaction Biology Corp
As to conditions: FGFR2; 0.1 μM; 10 μM ATP; read-out: % Enzyme Activity (relative to DMSO controls).
Text: as §1

Test [18] addresses T18, panel of 371 human kinases (Homo sapiens, UniProt Q13188).
T18 construct: purchased Reaction Biology Corp
As to conditions: MST2/STK3; 0.1 μM; 10 μM ATP; read-out: % Enzyme Activity (relative to DMSO controls).
Text: as §1

SMILES strings stand for the structures. Like-named read-outs stand apart in the source and are kept apart here.

T1 sequence (Q9Y4K4 whole entry): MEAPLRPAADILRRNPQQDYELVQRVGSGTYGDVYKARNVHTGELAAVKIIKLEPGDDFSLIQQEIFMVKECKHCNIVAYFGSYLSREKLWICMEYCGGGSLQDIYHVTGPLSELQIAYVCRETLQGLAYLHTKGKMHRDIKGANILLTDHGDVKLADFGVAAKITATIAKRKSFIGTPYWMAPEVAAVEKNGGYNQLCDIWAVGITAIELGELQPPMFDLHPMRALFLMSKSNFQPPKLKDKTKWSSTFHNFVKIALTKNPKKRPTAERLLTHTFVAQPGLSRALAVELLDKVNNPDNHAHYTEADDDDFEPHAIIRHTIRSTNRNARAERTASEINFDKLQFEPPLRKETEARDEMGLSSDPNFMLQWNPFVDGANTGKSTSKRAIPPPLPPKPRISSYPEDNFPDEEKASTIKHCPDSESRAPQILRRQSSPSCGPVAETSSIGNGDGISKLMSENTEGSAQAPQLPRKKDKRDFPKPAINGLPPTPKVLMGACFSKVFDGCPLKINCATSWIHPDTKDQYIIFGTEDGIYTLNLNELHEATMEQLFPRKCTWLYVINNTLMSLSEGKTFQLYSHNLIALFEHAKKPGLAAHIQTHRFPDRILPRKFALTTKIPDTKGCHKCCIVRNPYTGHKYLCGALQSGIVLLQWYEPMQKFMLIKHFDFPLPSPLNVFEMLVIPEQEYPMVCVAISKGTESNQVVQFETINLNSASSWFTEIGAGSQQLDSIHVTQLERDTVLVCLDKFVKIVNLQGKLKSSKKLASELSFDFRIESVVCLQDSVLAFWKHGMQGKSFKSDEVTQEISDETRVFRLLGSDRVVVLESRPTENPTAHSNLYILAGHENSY
T8 sequence (Q00526 whole entry): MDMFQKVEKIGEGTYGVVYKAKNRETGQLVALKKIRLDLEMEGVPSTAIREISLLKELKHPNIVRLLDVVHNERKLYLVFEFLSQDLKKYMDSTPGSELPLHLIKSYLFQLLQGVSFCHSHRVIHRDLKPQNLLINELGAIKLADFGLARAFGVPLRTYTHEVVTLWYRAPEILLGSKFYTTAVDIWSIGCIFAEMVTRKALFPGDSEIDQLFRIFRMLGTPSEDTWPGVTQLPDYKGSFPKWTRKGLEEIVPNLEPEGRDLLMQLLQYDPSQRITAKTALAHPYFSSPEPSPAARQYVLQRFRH
T12 sequence (Q00537 whole entry): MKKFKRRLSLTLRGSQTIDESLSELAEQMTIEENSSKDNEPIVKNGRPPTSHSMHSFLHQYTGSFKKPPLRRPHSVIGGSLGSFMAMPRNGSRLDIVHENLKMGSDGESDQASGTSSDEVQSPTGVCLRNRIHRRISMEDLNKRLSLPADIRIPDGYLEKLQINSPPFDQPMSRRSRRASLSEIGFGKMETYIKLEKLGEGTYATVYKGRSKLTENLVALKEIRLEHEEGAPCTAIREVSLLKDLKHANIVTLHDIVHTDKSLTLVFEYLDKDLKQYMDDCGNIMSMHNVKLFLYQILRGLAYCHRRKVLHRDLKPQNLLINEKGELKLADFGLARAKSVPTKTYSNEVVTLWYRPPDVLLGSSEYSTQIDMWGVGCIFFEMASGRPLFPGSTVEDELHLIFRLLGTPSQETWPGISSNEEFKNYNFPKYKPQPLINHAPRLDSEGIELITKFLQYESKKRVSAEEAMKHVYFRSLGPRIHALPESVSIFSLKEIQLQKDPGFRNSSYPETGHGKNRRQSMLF
T6 sequence (P49840 whole entry): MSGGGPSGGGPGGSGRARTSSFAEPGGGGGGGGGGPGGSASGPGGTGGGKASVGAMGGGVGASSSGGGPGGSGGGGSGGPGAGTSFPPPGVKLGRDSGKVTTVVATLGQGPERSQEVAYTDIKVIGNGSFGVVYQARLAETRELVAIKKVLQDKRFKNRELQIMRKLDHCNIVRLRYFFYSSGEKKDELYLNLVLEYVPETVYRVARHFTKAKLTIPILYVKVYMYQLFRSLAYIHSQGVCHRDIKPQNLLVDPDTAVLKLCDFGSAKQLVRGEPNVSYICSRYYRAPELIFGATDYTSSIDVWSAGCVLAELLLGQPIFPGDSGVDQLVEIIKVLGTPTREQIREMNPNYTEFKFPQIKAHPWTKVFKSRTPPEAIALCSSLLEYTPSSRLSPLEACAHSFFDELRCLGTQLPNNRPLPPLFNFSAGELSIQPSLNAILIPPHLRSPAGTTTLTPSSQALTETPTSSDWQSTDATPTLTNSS
T17 sequence (P21802 22-821): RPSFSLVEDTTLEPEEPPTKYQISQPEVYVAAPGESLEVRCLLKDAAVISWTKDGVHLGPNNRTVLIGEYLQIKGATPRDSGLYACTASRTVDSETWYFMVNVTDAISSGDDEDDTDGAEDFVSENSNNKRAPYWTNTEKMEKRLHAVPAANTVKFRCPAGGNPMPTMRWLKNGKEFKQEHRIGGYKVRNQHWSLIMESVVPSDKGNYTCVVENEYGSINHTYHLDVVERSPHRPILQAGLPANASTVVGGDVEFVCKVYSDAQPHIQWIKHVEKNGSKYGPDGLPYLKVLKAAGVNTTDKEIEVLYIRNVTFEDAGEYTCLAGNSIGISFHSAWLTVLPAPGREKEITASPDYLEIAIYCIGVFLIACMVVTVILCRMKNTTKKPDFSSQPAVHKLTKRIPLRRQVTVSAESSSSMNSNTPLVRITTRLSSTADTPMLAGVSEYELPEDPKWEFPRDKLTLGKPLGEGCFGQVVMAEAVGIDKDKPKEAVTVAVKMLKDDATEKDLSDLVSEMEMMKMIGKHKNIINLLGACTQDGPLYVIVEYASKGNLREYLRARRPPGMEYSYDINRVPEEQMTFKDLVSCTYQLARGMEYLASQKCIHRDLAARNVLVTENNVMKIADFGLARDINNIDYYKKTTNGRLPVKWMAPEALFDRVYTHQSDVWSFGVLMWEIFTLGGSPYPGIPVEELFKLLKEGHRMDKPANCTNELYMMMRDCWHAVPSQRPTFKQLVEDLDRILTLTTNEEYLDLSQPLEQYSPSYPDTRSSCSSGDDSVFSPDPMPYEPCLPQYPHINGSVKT
T14 sequence (O43318 whole entry): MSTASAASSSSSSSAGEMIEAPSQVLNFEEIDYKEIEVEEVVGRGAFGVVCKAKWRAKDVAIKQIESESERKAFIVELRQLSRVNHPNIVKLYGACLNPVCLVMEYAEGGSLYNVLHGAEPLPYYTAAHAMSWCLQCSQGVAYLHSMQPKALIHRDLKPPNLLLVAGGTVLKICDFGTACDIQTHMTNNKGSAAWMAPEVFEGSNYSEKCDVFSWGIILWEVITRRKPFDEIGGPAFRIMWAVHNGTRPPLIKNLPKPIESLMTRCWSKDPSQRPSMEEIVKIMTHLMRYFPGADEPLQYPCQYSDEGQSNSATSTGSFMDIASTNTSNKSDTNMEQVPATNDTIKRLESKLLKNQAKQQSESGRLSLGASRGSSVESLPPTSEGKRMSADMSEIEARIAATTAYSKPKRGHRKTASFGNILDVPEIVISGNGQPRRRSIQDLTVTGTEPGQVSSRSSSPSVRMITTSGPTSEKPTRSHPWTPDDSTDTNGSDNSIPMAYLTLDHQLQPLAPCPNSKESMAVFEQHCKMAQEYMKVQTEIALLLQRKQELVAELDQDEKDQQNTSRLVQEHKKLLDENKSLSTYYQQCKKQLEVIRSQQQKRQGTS
T5 sequence (Q76MJ5 35-926): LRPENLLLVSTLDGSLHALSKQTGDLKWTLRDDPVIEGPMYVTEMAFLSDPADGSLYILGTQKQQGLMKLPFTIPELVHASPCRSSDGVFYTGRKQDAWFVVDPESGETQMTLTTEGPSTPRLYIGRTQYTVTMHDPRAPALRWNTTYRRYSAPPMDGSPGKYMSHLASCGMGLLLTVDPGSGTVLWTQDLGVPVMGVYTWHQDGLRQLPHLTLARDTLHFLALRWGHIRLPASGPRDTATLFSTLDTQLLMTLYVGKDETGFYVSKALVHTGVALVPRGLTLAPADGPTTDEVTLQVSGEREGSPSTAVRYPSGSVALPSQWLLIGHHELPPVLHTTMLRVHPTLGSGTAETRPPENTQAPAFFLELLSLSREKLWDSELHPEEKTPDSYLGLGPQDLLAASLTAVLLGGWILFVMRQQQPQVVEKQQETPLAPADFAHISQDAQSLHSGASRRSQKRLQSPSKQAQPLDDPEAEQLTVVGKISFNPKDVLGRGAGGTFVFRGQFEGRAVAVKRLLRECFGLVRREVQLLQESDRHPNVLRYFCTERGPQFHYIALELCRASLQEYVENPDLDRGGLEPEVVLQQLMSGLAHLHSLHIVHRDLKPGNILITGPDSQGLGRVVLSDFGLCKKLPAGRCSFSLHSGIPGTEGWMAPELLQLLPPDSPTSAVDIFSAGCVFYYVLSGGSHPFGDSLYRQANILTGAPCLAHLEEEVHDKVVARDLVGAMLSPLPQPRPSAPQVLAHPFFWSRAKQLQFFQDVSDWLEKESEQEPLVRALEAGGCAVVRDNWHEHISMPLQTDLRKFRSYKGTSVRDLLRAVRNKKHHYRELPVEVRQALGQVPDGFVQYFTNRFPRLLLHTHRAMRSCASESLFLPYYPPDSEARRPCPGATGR
T4 sequence (P06239 whole entry): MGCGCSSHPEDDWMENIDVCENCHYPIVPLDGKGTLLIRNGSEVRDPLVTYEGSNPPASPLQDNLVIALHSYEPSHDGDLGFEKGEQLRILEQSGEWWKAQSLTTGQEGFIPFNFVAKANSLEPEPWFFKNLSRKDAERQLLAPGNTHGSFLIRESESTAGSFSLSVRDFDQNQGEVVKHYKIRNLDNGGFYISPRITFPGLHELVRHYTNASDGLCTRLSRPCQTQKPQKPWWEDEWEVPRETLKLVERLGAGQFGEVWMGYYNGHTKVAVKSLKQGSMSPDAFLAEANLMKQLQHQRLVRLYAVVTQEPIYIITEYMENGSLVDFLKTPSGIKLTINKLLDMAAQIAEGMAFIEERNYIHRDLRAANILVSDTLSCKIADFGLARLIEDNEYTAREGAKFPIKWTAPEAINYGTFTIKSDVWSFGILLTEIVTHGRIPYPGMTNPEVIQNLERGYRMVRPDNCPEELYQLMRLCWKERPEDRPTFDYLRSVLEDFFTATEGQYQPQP

On to `CN1CCN(Cc2ccc(-c3cnc4[nH]cc(-c5ccc6[nH]ccc6c5)c4c3)cc2)CC1` [Compound 1, 3-(1H-Indol-5-yl)-5-(4-((4-methylpiperazin-1-yl)methyl)phenyl)-1H-pyrrolo[2,3-b]pyridine, reference compound], for which the remaining activity at 0.1 µM in test [1] came to 31.4%; in test [2] it was 63.6%; in test [3], 104%; in [4], 94.2%; in test [5], 92.3%; in test [6], 84.8%. In addition, the remaining activity at 0.1 µM in [7] amounted to 103%; in test [8] (CDK3/cyclin E2), 92.6%; in test [8] (CDK3/cyclin E) it was 92.9%; in test [9] it was 99.1%; in [10], 86.8%; in test [11] it was 100%. The remaining activity at 0.1 µM in test [12] was determined as 88%; in test [13], 103%; in [14], 84.6%; in [15], 76.7%; in test [16], 143%; in test [17] it was 79.9%. Moreover, the remaining activity at 0.1 µM in test [18] is 102%.
For the molecule `OCCN1CCN(Cc2ccc(-c3cnc4[nH]cc(-c5cccc(Cl)c5)c4c3)cc2)CC1` [Compound 12k, 2-(4-(4-(3-(3-Chlorophenyl)-1H-pyrrolo[2,3-b]pyridin-5-yl)benzyl)piperazin-1-yl)ethan-1-ol], the “fold change in KHS activity following 12k exposure relative to 1” value in test [1] (0.025 μM) is on record as 17.36 fold. Moreover, the remaining activity at 0.1 µM in test [1] came out at 1.81%; in test [2], 10.2%; in test [3], 97.2%; in test [4], 98.8%; in test [5], 64.3%; in [6], 91.6%. The remaining activity at 0.1 µM in [7] worked out at 101%; in test [8] (CDK3/cyclin E2), 90.2%; in test [8] (CDK3/cyclin E), 97%; in test [9], 97.9%; in test [10], 94.3%; in [11], 112%. For the same molecule, the remaining activity at 0.1 µM in test [12] is 74%; in test [13] it was 102%; in [14], 77.4%; in [15] it was 91.5%; in test [16], 116%; in test [17] it was 89.5%. Besides, the remaining activity at 0.1 µM in test [18] is 86%. The “fold change in GCK activity following 12k exposure relative to 1” value in [2] (0.025 μM) is 6.22 fold.
